Consider 6 compounds from patent publication US8217172B2, “Solid forms of 1-ethyl-3-(5-(5-fluoropyridin-3-yl)-7-(pyrimidin-2-yl)-1H-benzo[d]imidazol-2-yl)urea” (Vertex Pharmaceuticals Incorporated, priority 2007, dated 2012).

Common to all, as to type: physicochemical
Data set [1] can be described thus: Dynamic Vapor Sorption (DVS), step isothermal study. To be noted: 25° C.; for release of adsorbed water in the desorption stage: 95% to 5% RH; for moisture picked up at 95% relative humidity (RH): adsorption 5% to 95% RH; for weight gain from 5% to 95% relative humidity: step isothermic study (DVS). As to the method: Dynamic Vapor Sorption (DVS): A step isothermal study (25° C.) was conducted on a representative sample of form IA using a VTI SGA 100 Symmetric Vapor Sorption Analyzer. An aliquot of approximately 10 mg was weighed in an open platinum dish and exposed to different levels of humidity at 25° C. Relative humidity (RH) steps were from 5% to 95% (adsorption) and from 95% to 5% in increments of 5% RH (desorption). The equilibration criterion was 0.0100 wt % change in 5 min, with a max equilibration time of 180 min. The sample picked up ˜8 wt % moisture at 95% relative humidity (RH).
Dynamic Vapor Sorption (DVS): A step isothermal study (25° C.) was conducted on a sample of form IIA using a VTI SGA 100 Symmetric Vapor Sorption Analyzer. An aliquot of approximately 10 mg was weighed in an open platinum dish and exposed to different levels of humidity at 25° C. Relative humidity (RH) steps were from 5% to 95% (adsorption) and from 95% to 5% in increments of 5% RH (desorption). The equilibration criterion was 0.0100 wt % change in 5 min, with a max equilibration time of 180 min. The material picked up ˜11 wt % moisture at 95% relative humidity (RH).
Dynamic Vapor Sorption (DVS): A step isothermal study (25° C.) was conducted on a sample of form IIC using a VTI SGA 100 Symmetric Vapor Sorption Analyzer. An aliquot of approximately 10 mg was weighed in an open platinum dish and exposed to different levels of humidity at 25° C. Relative humidity (RH) steps were from 5% to 95% (adsorption) and from 95% to 5% in increments of 5% RH (desorption). The equilibration criterion was 0.0100 wt % change in 5 min, with a max equilibration time of 180 min. The material picked up ˜4 wt % moisture at 95% relative humidity (RH).
Water Vapor Sorption analysis: Vapor Sorption analysis of a sample of form IIIB was done using a SGA-100 Vapor Sorption Analyzer (VTI, Hialeah, Fla.). A sample with weight of approximately 7-12 mg was measured isothermally at 25° C. Data was collected by Isotherm software and analyzed by Microsoft Excel with a VTI macro (VTI, Hialeah, Fla.). The sample gained about 4.6% in weight from 5 to 95% RH (25° C.).

A short description of data set [2]: Stability analysis (chemical stability by HPLC, physical stability by XRPD). Particulars: for chemically and physically stable for at least about / chemically and physically stable for at least about (e.g. value): various storage conditions, including 40° C./75% RH (e.g., open container). The text has this:
In some embodiments, less than 25% of the form of Compound 1 decomposes, in some embodiments, less than about 20%, less than about 15%, less than about 10%, less than about 5%, less than about 3%, less than about 1%, less than about 0.5% of the form of Compound 1 decomposes under the conditions specified. In some embodiments, no detectable amount of the form of Compound 1 decomposes.
In some embodiments, less than 25% of the form of Compound 1 changes into one or more different physical forms when subjected to specified conditions, In some embodiments, less than about 20%, less than about 15%, less than about 10%, less than about 5%, less than about 3%, less than about 1%, less than about 0.5% of the form of Compound 1 changes into one or more different physical forms of Compound 1 when subjected to specified conditions. In some embodiments, no detectable amount of the form of Compound 1 changes into one or more different physical forms of Compound 1.

A short description of data set [3]: Solubility in various media (equilibration on a shaking bed for 24 hours, HPLC). To be noted: for Solubility, Actual Conc / Solubility in 0.05M Buffers, Actual Conc: 24 h equilibration; for Solubility, Total Conc: ambient, 24 h. As to the method:
Solubility: The solubility of form IA in various media was determined at ambient conditions by equilibrating aliquots of the drug powder with the solvents on a shaking bed for 24 hours. The samples were centrifuged, the saturated solutions of the drug were then separated and analyzed by HPLC. The sample volume was 100 μL and the target concentration was 10 mg/mL. The saturated solutions were diluted appropriately and analyzed by HPLC.
Solubility: Solubility of form IIC in various media was determined at ambient conditions by equilibrating aliquots of the drug powder with the solvents on a shaking bed for 24 hours. Samples were spun and the supernatant was carefully separated and analyzed by HPLC at the 24-hour timepoint using a stability-indicating method. […] Some variability may occur between lots of a particular sample.
Solubility: Solubility of form IIIB in various media was determined at ambient conditions by equilibrating aliquots of the drug powder with the medium on a shaking bed for 24 hours. The samples were centrifuged, the saturated solutions of the drug were then separated and analyzed by HPLC. The sample volume was 100 μL, and the target concentration was 10 mg/ml. The saturated solutions were diluted appropriately and analyzed by HPLC.

The mark [4] stands for this setting: aqueous solution, pH of about 1.6.

SMILES strings stand for the structures.

For `CCNC(=O)Nc1nc2cc(-c3cncc(F)c3)cc(-c3ncccn3)c2[nH]1.CCS(=O)(=O)O` [Form IIA, 1-ethyl-3-(5-(5-fluoropyridin-3-yl)-7-(pyrimidin-2-yl)-1H-benzo[d]imidazol-2-yl)urea•monoesylate], in data set [1] (DVS), the “release of adsorbed water in the desorption stage” value is given as “Not all of the adsorbed water was released” and the “moisture picked up at 95% relative humidity (RH)” value is given as about 11 wt %. Besides, the “weight gain from 5% to 95% relative humidity” value in data set [1] was “about 10%”. Also, the “change of solid form on storage” value in data set [2] (40° C./75% RH for about 24 hours or for about 2 weeks) is “converted to form IIB”. In data set [3] (setting [4]), the solubility was over 150 mg/mL.

The compound `CCNC(=O)Nc1nc2cc(-c3cncc(F)c3)cc(-c3ncccn3)c2[nH]1.CCS(=O)(=O)O` [Form IIB, 1-ethyl-3-(5-(5-fluoropyridin-3-yl)-7-(pyrimidin-2-yl)-1H-benzo[d]imidazol-2-yl)urea•monoesylate] returned a solubility in data set [3] (setting [4]) of over 150 mg/mL.

With `CCNC(=O)Nc1nc2cc(-c3cncc(F)c3)cc(-c3ncccn3)c2[nH]1.CCS(=O)(=O)O` [Form IIC, 1-ethyl-3-(5-(5-fluoropyridin-3-yl)-7-(pyrimidin-2-yl)-1H-benzo[d]imidazol-2-yl)urea•monoesylate], in data set [1] (DVS, 5% to 95% RH), the hydrate formation entry is “did not form a hydrate”. The “release of adsorbed water in the desorption stage” value in data set [1] (DVS) is on record as “All adsorbed water was released”. In addition, the “moisture picked up at 95% relative humidity (RH)” value in data set [1] (DVS) was about 4 wt %. Moreover, in data set [2], the “chemically and physically stable for at least about” value was “at least 2 weeks”. For the same compound, the “chemically and physically stable for at least about (e.g. value)” value in data set [2] is given as “at least 6 months”. Also, the “Solubility, Actual Conc” value came to 105 mg/mL in data set [3] (0.1N HCl, pH 1.10, target 100 mg/ml); 94.8 mg/mL in data set [3] (0.5% Methylcellulose (MC)/0.5% Sodium Lauryl Sulfate (SLS), pH 1.58, target 100 mg/ml); 33.6 mg/mL in data set [3] (0.9% Sodium Chloride, target 100 mg/ml); 125 mg/mL in data set [3] (1% Deoxycholic sodium salt (DOSS), pH 1.71, target 150 mg/ml); 159 mg/mL in data set [3] (1% Docusate, pH 1.58, target 150 mg/ml); 155 mg/mL in data set [3] (1% Pluronic F68, pH 1.57, target 150 mg/ml). The “Solubility, Actual Conc” value was determined as 159 mg/mL in data set [3] (1% Pluronic F108, pH 1.58, target 150 mg/ml); 126 mg/mL in data set [3] (1% SLS, pH 1.56, target 150 mg/ml); 130 mg/mL in data set [3] (1% Tween 80, pH 1.60, target 150 mg/ml); 162 mg/mL in data set [3] (4% Glycerol, pH 1.59, target 150 mg/ml); 137 mg/mL in data set [3] (10% Cremophor, pH 1.64, target 150 mg/ml); 152 mg/mL in data set [3] (10% Polyvinyl pyrrolidone (PVP) K30, pH 1.70, target 150 mg/ml). Further, the “Solubility, Actual Conc” value was 170 mg/mL in data set [3] (10% Solutol, pH 1.61, target 150 mg/ml); 144 mg/mL in data set [3] (10% Tween 80, pH 1.64, target 150 mg/ml); 138 mg/mL in data set [3] (10% Vitamin E TPGS, pH 1.58, target 150 mg/ml); 29.6 mg/mL in data set [3] (Tetraglucol:Water (1:1), pH 2.08, target 50 mg/ml); 152 mg/mL in data set [3] (Water, pH 1.60, target 150 mg/ml); 30.0 mg/mL in data set [3] (pH 7 Tris Buffer, target 100 mg/ml). Moreover, the “Solubility in 0.05M Buffers, Actual Conc” value in data set [3] (Potassium chloride hydrochloric acid, pH 1, experimental pH 1.01) was 113 mg/mL; in data set [3] (Potassium phosphate monobasic-sodium hydroxide, pH 7), 48.2 mg/mL; in data set [3] (Potassium phosphate monobasic-sodium hydroxide, pH 9, experimental pH 1.75), 67.0 mg/mL. The same compound gave a solubility in data set [3] (setting [4]) of over 150 mg/mL.

On to `CCNC(=O)Nc1nc2cc(-c3cncc(F)c3)cc(-c3ncccn3)c2[nH]1.CCS(=O)(=O)O` [Form IID, 1-ethyl-3-(5-(5-fluoropyridin-3-yl)-7-(pyrimidin-2-yl)-1H-benzo[d]imidazol-2-yl)urea•monoesylate], for which the solubility in data set [3] (setting [4]) is over 150 mg/mL.

On to `CCNC(=O)Nc1nc2cc(-c3cncc(F)c3)cc(-c3ncccn3)c2[nH]1.CS(=O)(=O)O` [Form IIIB, 1-ethyl-3-(5-(5-fluoropyridin-3-yl)-7-(pyrimidin-2-yl)-1H-benzo[d]imidazol-2-yl)urea•monomesylate], for which the “weight gain from 5% to 95% relative humidity” value in data set [1] is “about 4.6%”. For the same compound, in data set [2], the “chemically and physically stable for at least about” value was “at least 2 weeks”. The “chemically and physically stable for at least about (e.g. value)” value in data set [2] is “at least 1 months”. Further, the “Solubility, Total Conc” value in data set [3] (Captisol, 20%) came out at 3.81 mg/mL; in data set [3] (Captisol, 30%, pH 7), 0.634 mg/mL; in data set [3] (Ethanol) it was 0.439 mg/mL; in data set [3] (HCl, 0.1N), 12.2 mg/mL; in data set [3] (Miglyol810) it was 0.0219 mg/mL; in data set [3] (Octanol) it was 0.0584 mg/mL. Further, the “Solubility, Total Conc” value in data set [3] (PEG400) is 0.729 mg/mL; in data set [3] (PluronicF108, 1%), over 12.0 mg/mL; in data set [3] (PropyleneGlycol) it was 5.74 mg/mL; in data set [3] (SGF), over 12.0 mg/mL; in data set [3] (SIF), 0.0284 mg/mL; in data set [3] (SodiumLaurylSulfate, 1%), 0.623 mg/mL. Moreover, the “Solubility, Total Conc” value in data set [3] (TrisBuffer, pH 7) is 0.0276 mg/mL; in data set [3] (Vitamin E TPGS, 10%, 1% HPMC), over 12.0 mg/mL; in data set [3] (Vitamin E TPGS, 10%), 11.5 mg/mL; in data set [3] (Water), over 12.0 mg/mL. Besides, the solubility in data set [3] (at pH of about 4.4) and in data set [3] (in simulated gastric fluid (SGF)) was over 12 mg/mL in each case.

With `CCNC(=O)Nc1nc2cc(-c3cncc(F)c3)cc(-c3ncccn3)c2[nH]1.CCS(=O)(=O)O` [crystalline 1-ethyl-3-(5-(5-fluoropyridin-3-yl)-7-(pyrimidin] [1-ethyl-3-(5-(5-fluoropyridin-3-yl)-7-(pyrimidin-2-yl)-1H-benzo[d]imidazol-2-yl)urea.monoesylate], in data set [2] (40° C./75% relative humidity), the “remains chemically stable for at least about” value is reported as “at least 2 weeks”, the “remains in substantially the same physical form for at least” value was “at least 6 months” and the “remains in substantially the same physical form for at least about” value is recorded as “at least 2 weeks”. For the same compound, in data set [3] (setting [4]), the solubility entry is given as “greater than 150 mg/ml”.

A word on the solubility: it is how much of the substance goes into solution per volume. Low values mean a poorly soluble substance, high ones a readily soluble substance.
